Experimental data published in ChEMBL document CHEMBL1629637, “In vitro activities of tigecycline, minocycline, and colistin-tigecycline combination against multi- and pandrug-resistant clinical isolates of Acinetobacter baumannii group” (Antimicrob Agents Chemother, 2009).
≈ marks a conversion by molar mass, not a printed value.

Assays:
Acinetobacter baumannii [1] = experiment: Antibacterial activity against extensively drug-resistant Acinetobacter baumannii clinical isolates by broth microdilution method; type: functional
[2] = Cmax in human serum at […], iv bolus dose followed by dose regimen of […] every 12 hrs; type: ADME, organism-based; set-up: route intravenous
Acinetobacter baumannii [3] = experiment: Antibacterial activity against pandrug-resistant Acinetobacter baumannii clinical isolates by broth microdilution method; type: functional
Acinetobacter baumannii [4] = experiment: Antibacterial activity against colistin-susceptible Acinetobacter baumannii clinical isolates by broth microdilution method; type: functional
Acinetobacter baumannii [5] = experiment: Antibacterial activity against imipenem-susceptible Acinetobacter baumannii clinical isolates by broth microdilution method; type: functional
Acinetobacter baumannii [6] = experiment: Antibacterial activity against colistin-resistant Acinetobacter baumannii clinical isolates by broth microdilution method; type: functional
Acinetobacter baumannii [7] = experiment: Antibacterial activity against colistin-resistant Acinetobacter baumannii clinical isolates assessed as percent susceptible isolates by broth microdilution method; type: functional
Acinetobacter baumannii [8] = experiment: Antibacterial activity against extensively drug-resistant Acinetobacter baumannii clinical isolates assessed as percent susceptible isolates by broth microdilution method; type: functional
Acinetobacter baumannii [9] = experiment: Antibacterial activity against colistin-susceptible Acinetobacter baumannii clinical isolates assessed as percent susceptible isolates by broth microdilution method; type: functional
Acinetobacter baumannii [10] = experiment: Antibacterial activity against imipenem-susceptible Acinetobacter baumannii clinical isolates assessed as percent susceptible isolates by broth microdilution method; type: functional
Acinetobacter baumannii [11] = experiment: Antibacterial activity against all antibiotic-resistant Acinetobacter baumannii clinical isolates assessed as percent susceptible isolates by broth microdilution method; type: functional
[12] = Acinetobacter baumannii, read-out: MIC90

Compound `CN(C)c1cc(NC(=O)CNC(C)(C)C)c(O)c2c1C[C@H]1C[C@H]3[C@H](N(C)C)C(O)=C(C(N)=O)C(=O)[C@@]3(O)C(O)=C1C2=O` [TIGECYCLINE] has an MIC50 (Acinetobacter baumannii [1]) of 1 µg/mL (≈ 1.71 µM), an MIC90 (Acinetobacter baumannii [1]) of 2 µg/mL (≈ 3.41 µM) and a Cmax [2] of 630 ng/mL. The MIC50 (Acinetobacter baumannii [3]) was 1 µg/mL (≈ 1.71 µM), the MIC90 (Acinetobacter baumannii [3]) was 2 µg/mL (≈ 3.41 µM) and the MIC50 (Acinetobacter baumannii [4]) was 1 µg/mL (≈ 1.71 µM). For the same compound, the MIC50 (Acinetobacter baumannii [5]) was 1 µg/mL (≈ 1.71 µM), the MIC90 (Acinetobacter baumannii [5]) was 2 µg/mL (≈ 3.41 µM) and the MIC90 (Acinetobacter baumannii [6]; [12]) was 2 µg/mL (≈ 3.41 µM).

With `CN(C)c1ccc(O)c2c1C[C@H]1C[C@H]3[C@H](N(C)C)C(O)=C(C(N)=O)C(=O)[C@@]3(O)C(O)=C1C2=O` [MINOCYCLINE] the Activity (Acinetobacter baumannii [7]) was 49.4%, the MIC50 (Acinetobacter baumannii [8]) was 8 µg/mL (≈ 17.5 µM) and the MIC90 (Acinetobacter baumannii [8]) was 16 µg/mL (≈ 35 µM). It also gave an MIC50 (Acinetobacter baumannii [4]) of 8 µg/mL (≈ 17.5 µM), an Activity (Acinetobacter baumannii [9]) of 18% and an MIC50 (Acinetobacter baumannii [10]) of 4 µg/mL (≈ 8.74 µM). For the same compound, the MIC90 (Acinetobacter baumannii [10]) was 8 µg/mL (≈ 17.5 µM), the MIC90 (Acinetobacter baumannii [6]) was 8 µg/mL (≈ 17.5 µM) and the MIC90 (Acinetobacter baumannii [6]; [12]) was 16 µg/mL (≈ 35 µM). The MIC50 (Acinetobacter baumannii [11]) was 8 µg/mL (≈ 17.5 µM) and the MIC90 (Acinetobacter baumannii [11]) was 16 µg/mL (≈ 35 µM).
